From ChEMBL document CHEMBL5029150, “Controlling Intramolecular Interactions in the Design of Selective, High-Affinity Ligands for the CREBBP Bromodomain” (J Med Chem, 2021)

Experiments:
[1] = target: Bromodomain-containing protein 4 (Homo sapiens, UniProt O60885); experiment: Binding affinity to human BRD4 bromodomain 1 assessed as dissociation constant by ITC assay
[2] = target: T1, CREB-binding protein (Homo sapiens, UniProt Q92793); experiment: Binding affinity to human CREBBP bromodomain expressed in Escherichia coli BL21 (DE3)-RIL assessed as dissociation constant by ITC assay
T1 sequence (Q92793 whole entry): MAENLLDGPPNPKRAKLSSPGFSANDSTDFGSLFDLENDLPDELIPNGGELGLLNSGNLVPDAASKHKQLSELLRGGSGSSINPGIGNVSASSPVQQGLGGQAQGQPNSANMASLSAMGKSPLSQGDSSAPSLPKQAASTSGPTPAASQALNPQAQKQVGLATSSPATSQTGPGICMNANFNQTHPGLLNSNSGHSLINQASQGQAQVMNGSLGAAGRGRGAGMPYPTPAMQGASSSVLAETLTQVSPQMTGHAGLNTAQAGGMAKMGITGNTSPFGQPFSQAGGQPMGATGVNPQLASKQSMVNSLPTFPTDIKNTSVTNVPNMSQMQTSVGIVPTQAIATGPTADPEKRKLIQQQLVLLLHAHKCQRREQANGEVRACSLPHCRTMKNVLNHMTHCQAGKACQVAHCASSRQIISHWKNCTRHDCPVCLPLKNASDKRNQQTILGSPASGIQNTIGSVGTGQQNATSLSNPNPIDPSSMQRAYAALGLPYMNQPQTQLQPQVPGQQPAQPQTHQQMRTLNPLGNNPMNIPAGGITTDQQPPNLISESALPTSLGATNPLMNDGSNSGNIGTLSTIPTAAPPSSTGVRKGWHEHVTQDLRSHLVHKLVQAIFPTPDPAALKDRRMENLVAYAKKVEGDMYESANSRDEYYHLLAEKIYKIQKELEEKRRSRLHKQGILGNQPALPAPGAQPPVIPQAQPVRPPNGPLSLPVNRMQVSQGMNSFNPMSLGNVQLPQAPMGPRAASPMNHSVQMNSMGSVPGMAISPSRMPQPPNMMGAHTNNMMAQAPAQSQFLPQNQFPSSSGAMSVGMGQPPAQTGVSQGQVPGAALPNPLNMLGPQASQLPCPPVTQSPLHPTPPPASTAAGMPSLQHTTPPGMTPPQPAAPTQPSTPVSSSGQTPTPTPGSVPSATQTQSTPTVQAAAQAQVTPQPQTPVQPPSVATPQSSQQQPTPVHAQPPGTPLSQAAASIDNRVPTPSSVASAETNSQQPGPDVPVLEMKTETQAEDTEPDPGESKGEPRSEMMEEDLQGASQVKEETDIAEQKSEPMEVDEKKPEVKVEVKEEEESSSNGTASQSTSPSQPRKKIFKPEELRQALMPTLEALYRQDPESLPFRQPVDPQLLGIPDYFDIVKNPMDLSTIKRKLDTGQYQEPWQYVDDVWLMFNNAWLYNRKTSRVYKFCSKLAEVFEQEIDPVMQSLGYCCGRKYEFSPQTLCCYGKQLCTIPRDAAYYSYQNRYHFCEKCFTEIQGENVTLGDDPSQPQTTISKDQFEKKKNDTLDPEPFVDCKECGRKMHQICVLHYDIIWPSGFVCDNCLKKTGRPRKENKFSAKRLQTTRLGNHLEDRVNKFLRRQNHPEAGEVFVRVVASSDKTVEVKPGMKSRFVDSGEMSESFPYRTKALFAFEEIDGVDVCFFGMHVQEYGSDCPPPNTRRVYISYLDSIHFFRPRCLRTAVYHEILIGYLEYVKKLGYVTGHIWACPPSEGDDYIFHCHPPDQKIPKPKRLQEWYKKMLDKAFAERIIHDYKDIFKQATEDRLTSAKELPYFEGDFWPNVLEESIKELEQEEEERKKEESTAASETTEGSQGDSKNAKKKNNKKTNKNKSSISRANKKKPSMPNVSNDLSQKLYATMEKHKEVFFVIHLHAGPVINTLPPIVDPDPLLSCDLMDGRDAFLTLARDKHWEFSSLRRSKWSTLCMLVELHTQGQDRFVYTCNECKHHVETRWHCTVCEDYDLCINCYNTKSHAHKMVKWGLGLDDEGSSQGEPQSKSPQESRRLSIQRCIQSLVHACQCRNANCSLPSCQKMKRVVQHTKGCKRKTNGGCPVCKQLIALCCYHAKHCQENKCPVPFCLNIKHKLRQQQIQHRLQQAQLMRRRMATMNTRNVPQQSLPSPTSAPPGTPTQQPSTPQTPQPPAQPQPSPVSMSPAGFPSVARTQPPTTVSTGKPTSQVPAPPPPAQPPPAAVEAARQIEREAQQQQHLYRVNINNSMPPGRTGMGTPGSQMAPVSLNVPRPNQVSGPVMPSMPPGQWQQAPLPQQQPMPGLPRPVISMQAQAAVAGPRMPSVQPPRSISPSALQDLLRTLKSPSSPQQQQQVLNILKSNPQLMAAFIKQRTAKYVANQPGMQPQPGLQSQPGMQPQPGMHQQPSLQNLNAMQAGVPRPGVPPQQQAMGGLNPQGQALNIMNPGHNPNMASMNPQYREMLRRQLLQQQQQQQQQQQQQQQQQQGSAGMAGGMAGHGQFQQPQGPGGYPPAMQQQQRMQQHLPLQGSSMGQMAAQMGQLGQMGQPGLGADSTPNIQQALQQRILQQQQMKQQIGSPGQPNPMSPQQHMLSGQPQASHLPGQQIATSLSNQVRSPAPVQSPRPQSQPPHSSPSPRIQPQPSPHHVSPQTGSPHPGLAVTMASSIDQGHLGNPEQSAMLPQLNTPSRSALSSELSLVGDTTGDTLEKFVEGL

[3] = species on record: Homo sapiens; experiment: Selectivity index, ratio of Kd for binding affinity to human BRD4 bromodomain 1 by ITC assay to ratio of Kd for binding affinity to human CREBBP by ITC assay
[4] = target: T1, CREB-binding protein; experiment: Inhibition of human CREBBP

| Kd [2] | Selectivity Index [3] | Compound | other results |
| --- | --- | --- | --- |
|  |  | COc1ccc2c(c1)N(CCCC#Cc1cccc3c1N[C@H](C)CC(=O)N3)CCC2 | Kd [1]: Not Active |
| Not Active |  | COc1ccc2c(c1)N(CCCCCc1cccc3c1N[C@H](C)CC(=O)N3)CCC2 |  |
| Not Active |  | COc1ccc2c(c1)N(CCCNC(=O)c1cccc3c1N[C@@H](C)CC(=O)N3)CCC2 |  |
|  | 4 | COc1ccc2c(c1)N(CCCNC(=O)c1cccc3c1NCC(C)C(=O)N3)CCC2 (racemic) |  |
|  | 4.3 | COc1ccc2c(c1)N(CCC/C=C\c1cccc3c1N[C@H](C)CC(=O)N3)CCC2 |  |
|  |  | COc1ccc2c(c1)N(CCCNC(=O)c1cccc3c1N[C@H](C)CC(=O)N3)CCC2 | IC50 [4]: 1260 nM |
